Experimental data from patent publication US4585784A, “Pyrrole-2-acetylamino acid derivative compounds” (McNeilab, Inc., priority 1983, dated 1986).
Like-named read-outs stand apart in the source and are kept apart here.

Tests used:
[1] = gastric ulceration test (ability to induce gastric ulceration, 4 days oral dosing); settings: in vivo; for selectivity ratio: therapeutic index in respect to gastric ulceration, * = significantly different from parent compound p ≤0.05, read-out: AII (antiinflammatory index, UD50/ED50)
Experimental: In addition to their antiinflammatory activity, the compounds were evaluated for their ability to induce gastric ulceration since gastric irritation is the most significant side effect following administration of prostaglandin biosynthesis inhibitors. As described by Wong et al., the dose (UD50 mg/kg/day) required to produce 50 percent ulcerogenic response following 4 days of oral dosing with test drug was determined. The results are shown in Table I. As described by Wong et al., a therapeutic index in respect to gastric ulceration, the "antiinflammatory index (AII)" defined as UD50 /ED50, was determined.

[2] = rat adjuvant arthritis test (antiinflammatory activity); type: in vivo, Female Wistar/Lewis rats; settings: oral, daily for 4 days, inhibition of noninjected hind paw volume vs controls, compounds given as aqueous solutions of sodium salts
Experimental: The antiinflammatory activity of the compounds of the instant invention was measured using the rat adjuvant arthritis test [S. Wong, J. F. Gardocki and T. P. Pruss, J. Pharmacol. and Exp. Ther. 185, 127 (1973)]. Female Wistar/Lewis rats were given an injection of heat-killed Mycobacterium butyricum in light mineral oil. After 11 days, the animals which had developed an arthritic condition were selected and given daily oral doses of test drug for 4 days. Paw volumes were measured and the percent inhibition of the noninjected hind paw as compared to controls was calculated. The results (Table I) are expressed as ED50 (mg/kg/day).

[3] = in vivo; cited from earlier work
[4] = tested on: prostaglandin biosynthesis; settings: cited from earlier work

Structure (SMILES)	TD50 at 96 h [1] [mg/kg]	selectivity ratio [1]	ED50 ([2]; 96 h, read-out: ED50) [mg/kg]	AII (antiinflammatory index, UD50/ED50) [1]	UD50 ([1]; 96 h) [mg/kg/day]	ED50 [2] [mg/kg/day]	side effect (in words) [3]	mode of action (in words) [4]
Cc1cc(CC(=O)NCC(=O)O)n(C)c1C(=O)c1ccc(Cl)cc1 [Example VII, N-{[5-(4-chlorobenzoyl)-1,4-dimethyl-1H-pyrrol-2-yl]-acetyl}-glycine]	21.1	34.4	0.61	–	–	–	–	–
Cc1cc(CC(=O)NC(C)C(=O)O)n(C)c1C(=O)c1ccc(Cl)cc1 (centres unmarked) [VIII (1), N--{[5-(4-chlorobenzoyl)-1,4-dimethyl-1H--pyrrol-2-yl]-acetyl}-alanine]	25.4	37.6	0.67	–	–	–	–	–
CSCCC(NC(=O)Cc1cc(C)c(C(=O)c2ccc(Cl)cc2)n1C)C(=O)O (centres unmarked) [VIII (2), N--{[5-(4-chlorobenzoyl)-1,4-dimethyl-1H--pyrrol-2-yl]-acetyl}-methionine]	43.7	46.9	0.93	–	–	–	–	–
Cc1cc(CC(=O)N[C@@H](CCC(=O)O)C(=O)O)n(C)c1C(=O)c1ccc(Cl)cc1 [VIII (3), N--{[5-(4-chlorobenzoyl)-1,4-dimethyl-1H--pyrrol-2-yl]-acetyl}-glutamic acid]	–	–	–	68.9	37.0	0.54	–	–
Cc1cc(CC(=O)NC(CC(=O)O)C(=O)O)n(C)c1C(=O)c1ccc(Cl)cc1 (centres unmarked) [VIII (4), N--{[5-(4-chlorobenzoyl)-1,4-dimethyl-1H--pyrrol-2-yl]-acetyl}-aspartic acid]	71	93.1	0.76	–	–	–	–	–
Cc1cc(CC(=O)NC(CCCCN)C(=O)O)n(C)c1C(=O)c1ccc(Cl)cc1 (centres unmarked) [X, N^2 -{[5-(4-chlorobenzoyl)-1,4-dimethyl-1H-pyrrol-2-yl]-acetyl}-lysine-hydrate(5:8)]	35.1	54.8	0.64	–	–	–	–	–
Cc1cc(CC(=O)N[C@@H](CCC(N)=O)C(=O)O)n(C)c1C(=O)c1ccc(Cl)cc1 [XI, N-{[5-(4-chlorobenzoyl)-1,4-dimethyl-1H-pyrrol-2-yl]-acetyl}-glutamine]	33.4	46.5	0.72	–	–	–	–	–
Cc1cc(CC(=O)O)n(C)c1C(=O)c1ccc(Cl)cc1 [zomepirac, [5-(4-chlorobenzoyl)-1,4-dimethyl-1H-pyrrol-2-yl]acetic acid, reference compound]	13.8	27.2	0.51	–	–	–	gastrointestinal irritation	inhibition of prostaglandin biosynthesis
